Marks after values point to notes of the source that are not given here.
Columns and labels:
Assay type in all cases: in vivo, Female A/J mice
[1] = test system: Glutathione S-Transferase; assay: Glutathione S-transferase (GST) activity in tissue cytosol of treated mice, CDNB substrate; details: for Ratio Test/con (GST): gavage; for GST act.: gavage in corn oil
Procedure: The activity of cytosolic was assayed according to the method of Habig et al. using 1-chloro-2,4-dinitrobenzene (CDNB) as the substrate. Habig et al, J. Biol. Chem. 249:7130-7139 (1974). The complete solution contains, in a total volume of 2.0 mL, 0.1 M phosphate buffer, pH 6.5, 5 mM glutathione, 1 mM CDNB, and 20 μL of the cytosol. The reaction was monitored at 340 nm in a Beckman Model DU65 UV-VIS spectrophotometer. Assays were performed at 30° C. Complete assay mixture without the cytosolic enzyme was used as the reference blank. Data as analyzed by the Student's “t” test and P values were obtained in comparison to the control.

GSH = assay: Glutathione (GSH) concentration in tissues of treated mice, HPLC; details: for Ratio Test/con (GSH): gavage; for GSH conc.: gavage in corn oil
Procedure: GSH was quantitated by modification of the procedure Siller-Cepeda et al. Plant Cell Physiol. 32:1179-1185 (1991). Aliquots of tissue homogenates were mixed with equal volumes of 20% PCA containing 2 mM BPDS. Vortex, centrifuge at 7800×g for 15 minutes at 4° C. and 250 μl supernatant transferred into a microfuge tube containing 25 μl of γ-glu-glu as internal standard. The samples were carboxymethylated with 25 μl of 100 mM iodoacetic acid dissolved in 0.2 mM m-cresol purple sodium salt solution. The pH of the solution was adjusted to 9-10 by adding 350 μl of KOH (2M)-KHCO3 (2.4 M) mixture and incubated in the dark for 15 minutes. After carboxymethylation, the samples were derivatized with 500 μl of 1% dinitrofluorobenzene (DNFB) and kept in the dark at 4° C. overnight. The samples were centrifuged at 13,000×g for 15 minutes, filtered through 0.2 μm filter, and were analyzed with a SHIMADZU two-pump gradient HPLC system. Samples were injected by a SHIMADZU SIL-10AV Autoinjector onto a Varian 3-aminopropyl MICROSORB-MV column (4.6×250 mm) operated at ambient temperature with a flow rate of 1 ml/min. Absorbance of the dinitrophenyl derivatives was monitored at 365 nm. The amount of GSH was calculated from a standard curve using γ-glu-glu as internal standard.

[2] = test system: UDP-Glucuronosyltransferase (UDP-GT); assay: UDP-glucuronosyltransferase (UDP-GT) activity in liver microsomes of treated mice, o-aminophenol substrate; details: for Ratio Test/con (UDP-GT): gavage; for UDP-GT activity (column head prints GSH conc.): gavage in corn oil
Procedure: Microsomal samples were assayed for enzymatic conjugation by modifying the procedure of Zakim et al., Methods of Biochemical Analysis, ed. David Glick, 21:1-37, (1973). using o-aminophenol as the substrate. The complete assay solution contains, in a total volume of 500 μl, 0.25 M phosphate buffer (pH 7.6), 0.002 M o-aminophenol, 0.05 M UDPGA, 0.125 M magnesium chloride and 100 μl microsomes. The mixture was incubated for 30 minutes. Reactions were stopped by the addition of 500 μl of TCA-sodium phosphate reagent. The precipitated protein was removed, 100 μl of 0.05% sodium nitrite was added to 950 μl of the supernatent solution and allowed to stand for 5 minutes. 100 μl of 0.5% ammonium sulfamate was added, after 5 minutes. 100 μl of 0.12% N-(-1-naphthyl)ethylenediamine dihydrochloride was added and incubated for 2 hours in the dark; and the difference in the optical density between the blanks and the samples were recorded at 555 nm in a Beckman model DU65 UV-VIS spectrophotometer. The UDP-GT activity was calculated using the extinction coefficient 29 mM-1 cm-1 for the coupled product.

[3] = colon, dose 0.02 mmol/Kg body weight
[4] = colon, dose 0.04 mmol/Kg body weight
[5] = forestomach, dose 0.02 mmol/Kg body weight
[6] = forestomach, dose 0.04 mmol/Kg body weight
[7] = liver, dose 0.02 mmol/Kg body weight
[8] = liver, dose 0.04 mmol/Kg body weight
[9] = lung, dose 0.02 mmol/Kg body weight
[10] = lung, dose 0.04 mmol/Kg body weight
[11] = small intestinal mucosa, dose 0.02 mmol/Kg body weight
[12] = small intestinal mucosa, dose 0.04 mmol/Kg body weight

With `N#C[Se]Cc1ccc[se]1` [(3) SMSC, 2-selenophenyl methylene selenocynate] the “Ratio Test/con (GST)” value [1, 3] was 1.08, the GST act. [1, 3] was 0.70 ± 0.05 μmol/min mg protein and the “Ratio Test/con (GST)” value [1, 4] was 1.06. The GST act. [1, 4] was 0.69 ± 0.09 μmol/min mg protein, the “Ratio Test/con (GST)” value [1, 5] was 0.8 and the GST act. [1, 5] was 0.89 ± 0.22 μmol/min mg protein. The “Ratio Test/con (GST)” value [1, 6] was 1.01, the GST act. [1, 6] was 1.12 ± 0.19 μmol/min mg protein and the “Ratio Test/con (GST)” value [1, 7] was 0.81. The GST act. [1, 7] was 1.04 ± 0.18 ^g μmol/min mg protein, the “Ratio Test/con (GST)” value [1, 8] was 1.58 and the GST act. [1, 8] was 2.02 ± 0.33 ^e μmol/min mg protein. For the same molecule, the “Ratio Test/con (GST)” value [1, 9] was 1.18, the GST act. [1, 9] was 0.40 ± 0.03 ^f μmol/min mg protein and the “Ratio Test/con (GST)” value [1, 10] was 1.00. The GST act. [1, 10] was 0.34 ± 0.06 μmol/min mg protein, the “Ratio Test/con (GST)” value [1, 11] was 0.86 and the GST act. [1, 11] was 0.19 ± 0.5 μmol/min mg protein. The “Ratio Test/con (GST)” value [1, 12] was 0.91, the GST act. [1, 12] was 0.20 ± 0.02 μmol/min mg protein and the “Ratio Test/con (GSH)” value (GSH; [7]) was 0.98. The GSH conc. (GSH; [7]) was 3.49 ± 0.90 μmol/gm tissue weight, the “Ratio Test/con (GSH)” value (GSH; [8]) was 1.38 and the GSH conc. (GSH; [8]) was 4.89 ± 0.57^c μmol/gm tissue weight. For the same molecule, the “Ratio Test/con (GSH)” value (GSH; [11]) was 0.89, the GSH conc. (GSH; [11]) was 1.88 ± 0.4 μmol/gm tissue weight and the “Ratio Test/con (GSH)” value (GSH; [12]) was 1.00. For the same molecule, the “Ratio Test/con (UDP-GT)” value ([2]; dose 0.02 mmol/Kg body weight) was 1.52, the “UDP-GT activity (column head prints GSH conc.)” value (shortened to “UDP-GT activity”) ([2]; dose 0.02 mmol/Kg body weight) was 6.15 ± 1.20 ^d nmol/min/mg protein and the “Ratio Test/con (UDP-GT)” value ([2]; dose 0.04 mmol/Kg body weight) was 2.36. For the same molecule, the “UDP-GT activity” value ([2]; dose 0.04 mmol/Kg body weight) was 9.56 ± 4.23 ^d nmol/min/mg protein.
In the case of `N#C[Se]Cc1ccc(C[Se]C#N)[se]1` [(4) SDMSC, selenophenyl-2,5-di-methylene selenocyanate], the “Ratio Test/con (GST)” value [1, 3] is reported as 1.13, the GST act. [1, 3] is reported as 0.45 ± 0.02 ^g μmol/min mg protein and the “Ratio Test/con (GST)” value [1, 4] is reported as 1.10. For the same molecule, the GST act. [1, 4] was 0.44 ± 0.04 μmol/min mg protein, the “Ratio Test/con (GST)” value [1, 5] was 1.35 and the GST act. [1, 5] was 1.05 ± 0.28 μmol/min mg protein. For the same molecule, the “Ratio Test/con (GST)” value [1, 6] was 1.21, the GST act. [1, 6] was 0.94 ± 0.18 μmol/min mg protein and the “Ratio Test/con (GST)” value [1, 7] was 1.06. For the same molecule, the GST act. [1, 7] was 1.20 ± 0.11 ^g μmol/min mg protein, the “Ratio Test/con (GST)” value [1, 8] was 1.50 and the GST act. [1, 8] was 1.69 ± 0.18 ^e μmol/min mg protein. The “Ratio Test/con (GST)” value [1, 9] was 1.23, the GST act. [1, 9] was 0.58 ± 0.08 μmol/min mg protein and the “Ratio Test/con (GST)” value [1, 10] was 1.17. The GST act. [1, 10] was 0.55 ± 0.07 μmol/min mg protein, the “Ratio Test/con (GST)” value [1, 11] was 1.00 and the GST act. [1, 11] was 0.34 ± 0.01 μmol/min mg protein. For the same molecule, the “Ratio Test/con (GST)” value [1, 12] was 1.06, the GST act. [1, 12] was 0.36 ± 0.02 μmol/min mg protein and the “Ratio Test/con (GSH)” value (GSH; [7]) was 0.93. The GSH conc. (GSH; [7]) was 3.58 ± 1.86 μmol/gm tissue weight, the “Ratio Test/con (GSH)” value (GSH; [8]) was 1.39 and the GSH conc. (GSH; [8]) was 5.34 ± 1.36 μmol/gm tissue weight. The “Ratio Test/con (UDP-GT)” value ([2]; dose 0.02 mmol/Kg body weight) was 2.30, the “UDP-GT activity” value ([2]; dose 0.02 mmol/Kg body weight) was 10.17 ± 2.37 ^c nmol/min/mg protein and the “Ratio Test/con (UDP-GT)” value ([2]; dose 0.02 mmol/Kg body weight, listed as SDMSC 4) was 2.67. The “Ratio Test/con (UDP-GT)” value ([2]; dose 0.04 mmol/Kg body weight) was 2.43 and the “UDP-GT activity” value ([2]; dose 0.04 mmol/Kg body weight) was 10.75 ± 2.04 ^d nmol/min/mg protein.
`N#C[Se]Cc1ccc(C[Se]C#N)cc1` [p-XSC, 1,4-phenylenebis(methylene)selenocyanate, reference compound] was tested, and the “Ratio Test/con (GST)” value [1, 3] was 1.10, the GST act. [1, 3] was 0.72 ± 0.07 μmol/min mg protein and the “Ratio Test/con (GST)” value [1, 5] was 0.88. For the same molecule, the GST act. [1, 5] was 0.98 ± 0.27 μmol/min mg protein, the “Ratio Test/con (GST)” value [1, 7] was 1.28 and the GST act. [1, 7] was 1.64 ± 0.45 μmol/min mg protein. For the same molecule, the “Ratio Test/con (GST)” value [1, 9] was 1.41, the GST act. [1, 9] was 0.48 ± 0.13 μmol/min mg protein and the “Ratio Test/con (GST)” value [1, 11] was 0.95. For the same molecule, the GST act. [1, 11] was 0.21 ± 0.06 μmol/min mg protein, the “induction of GST activity (in words)” value ([1]; tissues of A/J mice) was “failed to induce a significant increase” and the “Ratio Test/con (GSH)” value (GSH; [8]) was 0.99. For the same molecule, the GSH conc. (GSH; [8]) was 3.50 ± 0.75 μmol/gm tissue weight, the “Ratio Test/con (GSH)” value (GSH; [12]) was 0.91 and the GSH conc. (GSH; [12]) was 1.93 ± 0.54 μmol/gm tissue weight. The “increase of GSH concentration (in words)” value (GSH; tissues of A/J mice) was “failed to induce a significant increase”, the “Ratio Test/con (UDP-GT)” value ([2]; dose 0.04 mmol/Kg body weight) was 1.88 and the “UDP-GT activity” value ([2]; dose 0.04 mmol/Kg body weight) was 7.60 ± 2.47 ^d nmol/min/mg protein.
For `[Se]=C=NCc1ccc(CN=C=[Se])[se]1` [(7) SDMISC, selenophenyl-2,5-di-methylene isoselenocyanate], the “dose response of GST induction (in words)” value ([1]; colon) was “dose response induction”, the “Ratio Test/con (GST)” value [1, 3] was 1.23 and the GST act. [1, 3] was 0.80 ± 0.03 ^c μmol/min mg protein. For the same molecule, the “Ratio Test/con (GST)” value [1, 4] was 1.34, the GST act. [1, 4] was 0.87 ± 0.03 ^e μmol/min mg protein and the “Ratio Test/con (GST)” value [1, 5] was 1.10. The GST act. [1, 5] was 1.22 ± 0.21 μmol/min mg protein, the “Ratio Test/con (GST)” value [1, 6] was 1.14 and the GST act. [1, 6] was 1.27 ± 0.28 μmol/min mg protein. The “Ratio Test/con (GST)” value [1, 7] was 2.39, the GST act. [1, 7] was 3.06 ± 0.41 ^e μmol/min mg protein and the “Ratio Test/con (GST)” value [1, 8] was 2.34. For the same molecule, the GST act. [1, 8] was 3.00 ± 0.13 ^c μmol/min mg protein, the “Ratio Test/con (GST)” value [1, 9] was 1.31 and the GST act. [1, 9] was 0.45 ± 0.04 ^f μmol/min mg protein. The “Ratio Test/con (GST)” value [1, 10] was 1.16, the GST act. [1, 10] was 0.40 ± 0.04 μmol/min mg protein and the “Ratio Test/con (GST)” value [1, 11] was 2.26. The GST act. [1, 11] was 0.50 ± 0.14 ^e μmol/min mg protein, the “Ratio Test/con (GST)” value [1, 12] was 2.82 and the GST act. [1, 12] was 0.62 ± 0.04 ^c μmol/min mg protein. For the same molecule, the “Ratio Test/con (GST)” value ([1]; small intestinal mucosa, dose 0.04 mmol/Kg body weight, listed as SDMISC 7) was 2.83, the “Ratio Test/con (GSH)” value (GSH; [7]) was 1.30 and the GSH conc. (GSH; [7]) was 4.63 ± 1.30 μmol/gm tissue weight. For the same molecule, the “Ratio Test/con (GSH)” value (GSH; [8]) was 1.20, the GSH conc. (GSH; [8]) was 4.25 ± 1.02 μmol/gm tissue weight and the “Ratio Test/con (GSH)” value (GSH; [11]) was 1.36. The GSH conc. (GSH; [11]) was 2.86 ± 0.14^c μmol/gm tissue weight, the “Ratio Test/con (GSH)” value (GSH; [12]) was 1.90 and the GSH conc. (GSH; [12]) was 4.00 ± 0.35^d μmol/gm tissue weight. For the same molecule, the “Ratio Test/con (UDP-GT)” value ([2]; dose 0.02 mmol/Kg body weight) was 2.56, the “UDP-GT activity” value ([2]; dose 0.02 mmol/Kg body weight) was 10.37 ± 1.99 ^d nmol/min/mg protein and the “Ratio Test/con (UDP-GT)” value ([2]; dose 0.04 mmol/Kg body weight) was 1.60. For the same molecule, the “UDP-GT activity” value ([2]; dose 0.04 mmol/Kg body weight) was 6.46 ± 1.95 nmol/min/mg protein.
